Data: US8940497B2, “Enzyme regulating ether lipid signaling pathways” (The Scripps Research Institute, priority 2006, dated 2015)

What was measured:
Format in all cases: cell-based, human
Conditions in all cases: compared to DMSO controls
SKOV-3 cells = experiment: Targeted LC-MS analysis of lipid levels in inhibitor-treated cells
Procedure: (§1) The following LC-MS conditions were used for analysis of cancer cell metabolomes. Cell pellets were harvested by scraping, isolated by centrifugation at 1,400×g, and dounce-homogenized in 4 mL of a 2:1:1 mixture of chloroform:methanol:Tris buffer (50 mM Tris*HCl, pH 8.0). Samples that were analyzed by targeted LC-MS were homogenized in the presence of the following synthetic standards: C15:0 MAG (50 pmol), C17:0 LPA (50 pmol), and 13C-C16:0 MAGE (25 pmol). Organic and aqueous layers were separated by centrifugation at 1,260×g for 5 min. The organic layer was then removed, dried under a stream of N2, and re-solubilized in 100 μL of chloroform, of which 30 μL was analyzed by LC-MS. Extraction of LPA was performed by acidifying the remaining aqueous layer to a final concentration of 5% formic acid, followed by the addition of 2 mL of chloroform. The mixture was vortexed, the organic layer removed, concentrated to dryness, and dissolved in 100 μL of chloroform, of which 30 μL was analyzed by LC-MS.
(§2) LC-MS analysis was performed using an Agilent 1100 LC-MSD SL instrument. […] Mobile phase A was composed of a 95:5 ratio of water:methanol and mobile phase B consisted of 2-propanol, methanol, and water in a 60:35:5 ratio. Solvent modifiers such as 0.1% formic acid and 0.1% ammonium hydroxide were used to assist ion formation as well as improve the LC resolution in both positive and negative ionization modes respectively. The flow rate for each run started at 0.1 mL/min for 5 min, to alleviate backpressure associated with injecting chloroform. The gradient started at 0% B and increased linearly to 100% B over the course of 40 min with a flow rate of 0.4 mL/min, followed by an isocratic gradient of 100% B for 7 min before equilibrating for 8 min at 0% B with a flow rate of 0.5 mL/min.
MS analysis was performed with an electrospray ionization (ESI) source. The capillary voltage was set to 3.0 kV and the fragmentor voltage to 100V. The drying gas temperature was 350° C., the drying gas flow rate was 10 L/min, and the nebulizer pressure was 35 psi. Untargeted data was collected using a mass range of 200-1000 Da and exported as common data format (.CDF) files for computational analysis. Differentially expressed metabolites between sample pairs were identified using the XCMS analyte profiling software (http://metlin/download) that aligns mass peaks from two LC-MS traces and quantifies the relative intensities of global metabolites (5). Significant inhibitor-sensitive peak changes were confirmed by manual quantification using the area under the peak normalized to total ion current. Targeted LC-MS measurements were made using selected ion monitoring (SIM). Peaks were quantified by measuring the area under the peak and normalized to an internal standard (C15:0 MAG) or endogenous lipid (palmitic acid). Absolute MAGE levels were estimated by comparison to a 13C-MAGE standard.
Human ovarian cancer cell lines were obtained form the National Cancer Institute's Developmental Therapeutics Program. The melanoma lines C8161 and MUM-2B were obtained form Mary Hendrix. Cells were maintained in RPMI medium 1640 with 10% (v/v) fetal calf serum at 37° C. in a humidified atmosphere of 5% CO2/95% air. At approximately 80% confluency, cells were trypsinized, counted with the aid of a hemocytometer, and 2.5×10^6 cells were plated in 6 cm dishes. 20 h after plating cells were washed twice with PBS and supplemented with serum free RPMI containing 0.5% BSA (Sigma)(BSA-RPMI) with AS115 (0.01-10 μM) or vehicle (DMSO) at 0.1%. After incubation for 4 h the cells were harvested and analyzed by ABPP or LC-MS.
By extension, the m/z 345 and 347 metabolites were interpreted to represent the C18:1 and C18:0 MAGEs, respectively. […] MAGE levels were measured by targeted LC-MS analysis of SKOV-3 cells treated with AS115 (5 μM) or DMSO for 4 h using a 13C-C16:0 MAGE internal standard. Values are represented as pmol/10^6 cells. […]

C8161 melanoma cells = experiment: LC-MS MAGE lipid levels in inhibitor-treated melanoma cells
Procedure: as §1, §2
(§3) MS analysis was performed with an electrospray ionization (ESI) source. […] Differentially expressed metabolites between sample pairs were identified using the XCMS analyte profiling software (http://metlin/download) that aligns mass peaks from two LC-MS traces and quantifies the relative intensities of global metabolites (5). Significant inhibitor-sensitive peak changes were confirmed by manual quantification using the area under the peak normalized to total ion current. […] Peaks were quantified by measuring the area under the peak and normalized to an internal standard (C15:0 MAG) or endogenous lipid (palmitic acid). […]
(§4) Human ovarian cancer cell lines were obtained form the National Cancer Institute's Developmental Therapeutics Program. […] At approximately 80% confluency, cells were trypsinized, counted with the aid of a hemocytometer, and 2.5×10^6 cells were plated in 6 cm dishes. […] After incubation for 4 h the cells were harvested and analyzed by ABPP or LC-MS. […]

MUM-2B melanoma cells = experiment: as above
Procedure: as §1, §2, §3, §4

Measured: Levels of MAGE lipids

NC(=O)c1cccc(-c2cccc(OC(=O)NC3CCCCC3)c2)c1 [URB597, reference compound]
did not affect: all assays above
